Laboratory results from patent US6664253B2, “Neurokinin antagonists” (Boehringer Ingelheim Pharma KG, priority 2000, dated 2003).
pKi: −log10 of the molar value.

target: T1, NK1-receptor (substance P-receptor) (Homo sapiens, UniProt P25103); experiment: NK1-receptor affinity, displacement of 125I-labelled substance P on IM-9 cells; format: binding; conditions: human lymphoblastoma cells (IM-9) with cloned NK1-receptors
T1 construct: expressed in transfected cells; host or cells: IM-9 human lymphoblastoma cells
Protocol: The receptor affinity to the NK1-receptor (substance P-receptor) is determined on human lymphoblastoma cells (IM-9) with cloned NK1-receptors, by measuring the displacement of ^125I-labelled substance P. The Ki-values thus obtained show the efficacy of the compounds.

T1 sequence (P25103 whole entry): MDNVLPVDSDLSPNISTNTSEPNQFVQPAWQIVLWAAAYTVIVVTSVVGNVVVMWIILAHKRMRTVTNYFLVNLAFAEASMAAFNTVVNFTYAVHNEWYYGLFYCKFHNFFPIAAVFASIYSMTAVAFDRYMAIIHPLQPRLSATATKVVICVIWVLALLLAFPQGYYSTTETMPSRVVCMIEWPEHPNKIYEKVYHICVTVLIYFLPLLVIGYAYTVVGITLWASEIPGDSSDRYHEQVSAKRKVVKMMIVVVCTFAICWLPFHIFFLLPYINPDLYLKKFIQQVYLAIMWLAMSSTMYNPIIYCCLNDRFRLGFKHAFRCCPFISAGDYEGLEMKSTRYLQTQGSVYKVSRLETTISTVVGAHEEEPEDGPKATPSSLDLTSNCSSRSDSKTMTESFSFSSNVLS

Row | pKi | SMILES
1 | 9.15 | CN(CCc1cc(C(F)(F)F)cc(C(F)(F)F)c1)C(=O)[C@H](c1ccccc1)N1CCC(N2C(=O)COC2=O)CC1 [Example 3]
2 | 8.77 | CN(CCc1cc(C(F)(F)F)cc(C(F)(F)F)c1)C(=O)[C@H](c1ccccc1)N1CCC(N2CCCOC2=O)CC1 [Example 2, (S)-N-[2-(3,5-bis-trifluoromethyl-phenyl)-ethyl]-N-methyl-2-[4-(2-oxo-[1.3]oxazinan-3-yl)-piperidin-1-yl]-2-phenyl-acetamide]
3 | 9.22 | CC1CC(=O)N(C)C(=O)N1C1CCN([C@H](C(=O)N(C)CCc2cc(C(F)(F)F)cc(C(F)(F)F)c2)c2ccccc2)CC1 (stereo partly drawn) [Example 5]
4 | 8.46 | CN(CCc1cc(C(F)(F)F)cc(C(F)(F)F)c1)C(=O)[C@H](c1ccccc1)N1CCC(N2CCNC2=O)CC1 [Example 6]
5 | 9.22 | CN(CCc1cc(C(F)(F)F)cc(C(F)(F)F)c1)C(=O)[C@H](c1ccccc1)N1CCC(N2CCC(=O)N(C)C2=O)CC1 [Example 4]
6 | 9.10 | CN(CCc1cc(C(F)(F)F)cc(C(F)(F)F)c1)C(=O)[C@H](c1ccccc1)N1CCC(NC(=O)Nc2ccccc2)CC1 [Example 7]
7 | 6.78 | CC(=O)N1CCN(C2CCN(C(C(=O)NCc3cc(C(F)(F)F)cc(C(F)(F)F)c3)c3ccccc3)CC2)C1=O (stereo not drawn) [Example B-6, reference compound]
8 | 9.15 | CNC(=O)NC1CCN(C(C(=O)N(C)CCc2cc(C(F)(F)F)cc(C(F)(F)F)c2)c2ccccc2)CC1 (stereo not drawn) [Example 1, N-[2-(3,5-bis-trifluoromethyl-phenyl)-ethyl]-N-methyl-2-[4-(3-methyl-ureido)-piperidin-1-yl]-2-phenyl-acetamide]
9 | 6.36 | O=C(Nc1ccccc1)NC1CCN(C(C(=O)NCc2cc(C(F)(F)F)cc(C(F)(F)F)c2)c2ccccc2)CC1 (stereo not drawn) [Example B-7, reference compound]
